Source: US20170184604A1, “DD1ALPHA RECEPTOR AND USES THEREOF IN IMMUNE DISORDERS” (THE GENERAL HOSPITAL CORPORATION, priority 2014, published 2017)

Assays:
human CD4+ T cells = test: Human T cell activation assay (CFSE proliferation, cytokine ELISA); format: cell-based
Method: Enriched human CD4+ T cells and CD8+ T cells were stained with CFSE (1 μM) and stimulated with plate-bound anti-CD3 antibody (3 μg/ml) together with 2, 5, or 10 μg/ml of DD1α-Ig proteins or control Ig proteins. The proliferations of CD4+ T or CD8+ T cells were determined by the percentages of CFSE-labeled CD4+ T or CD8+ T cells at the 72-hour culture. The levels of cytokines IFN-γ and TNF-α in culture supernatant were analyzed by ELISA at the 48-hour culture. […] The proliferation and cytokine production of CD4+ T cells were determined as FIG. 5A. […] The proliferations of CD4+ T cells were determined by percentage of CFSE-diluted CD4+ cells on day 3. The levels of cytokines IFN-γ and IL-2 in culture supernatant were analyzed by ELISA on day 2. […] Data are shown as mean±SD and representative of three experiments.
The proliferations of CD4^+ T cells were determined by percentage of CFSE-diluted CD4^+ cells on day 3.
The cytokine production of CD4^+ T cells were then determined IFN-γ and TNF-alpha levels in culture supernatants on day 2 were analyzed by ELISA.
The amount of Ig protein was kept constant at 10 μg/ml by the addition of control Ig protein. Human CD4+ or CD8+ T cells were purified from freshly isolated PBMCs using CD4+ T Cell Isolation Kit II, human or CD8+ T Cell Isolation Kit, human (Miltenyi Biotec). Mouse CD4+ and CD8+ T cells were purified from splenocytes freshly isolated from mice using CD4+ T Cell Isolation Kit II, mouse or CD8a+ T Cell Isolation Kit II, mouse (Miltenyi Biotec). […] The T cells were labeled with 1 μM CFSE, quenched by cold FBS and incubated in the anti-CD3 & Ig proteins-coated plates. On day 2 after stimulation, supernatant was collected and cytokines were assayed by ELISA. On day 3, cells were stained with anti-CD4-APC (OKT4, eBioscience for human CD4+ T cells; RM4-5, eBioscience for mouse CD4+ T cells) or anti-CD8-APC (SK1, eBioscience for human CD8+ T cells; 53-6.7, eBioscience for mouse CD8+ T cells) and then analyzed for CFSE dilution by flow cytometry.

human CD8+ T cells = test: Human T cell activation assay (CFSE proliferation); format: cell-based; settings: various concentrations with 3 μg/ml anti-CD3
Method: (FIG. 5A) DD1α inhibits the activation of human CD4+ T cells and CD8+ T cells. Enriched human CD4+ T cells and CD8+ T cells were stained with CFSE (1 μM) and stimulated with plate-bound anti-CD3 antibody (3 μg/ml) together with 2, 5, or 10 μg/ml of DD1α-Ig proteins or control Ig proteins. The proliferations of CD4+ T or CD8+ T cells were determined by the percentages of CFSE-labeled CD4+ T or CD8+ T cells at the 72-hour culture. The levels of cytokines IFN-γ and TNF-α in culture supernatant were analyzed by ELISA at the 48-hour culture. (FIG. 5B) DD1α-mediated inhibition of T cell activation is modulated by α-PD1 antibodies. […] The proliferation and cytokine production of CD4+ T cells were determined as FIG. 5A. […] The proliferations of CD4+ T cells were determined by percentage of CFSE-diluted CD4+ cells on day 3. The levels of cytokines IFN-γ and IL-2 in culture supernatant were analyzed by ELISA on day 2. (FIG. 5D) DD1α mediates Foxp3+ iTreg cell development. […]
The amount of Ig protein was kept constant at 10 μg/ml by the addition of control Ig protein. […] On day 3, cells were stained with anti-CD4-APC (OKT4, eBioscience for human CD4+ T cells; RM4-5, eBioscience for mouse CD4+ T cells) or anti-CD8-APC (SK1, eBioscience for human CD8+ T cells; 53-6.7, eBioscience for mouse CD8+ T cells) and then analyzed for CFSE dilution by flow cytometry.

PD-L1 = test: Ig fusion protein staining of 293T transfectants (flow cytometry); format: binding, human; settings: cell surface staining
[1] = test system: Jurkat cells expressing DD1α receptor; test: Ig fusion protein binding to Jurkat cells; settings: several concentrations; anti-Ig-APC detection
Method: Jurkat cells overexpressing DD1alpha (transfected with DD1alpha cDNA) or control Jurkat cells were assayed for binding to Ig-fused DD1α or PD-1 proteins. Cells were incubated with several different concentrations of DD1α-Ig (left panels) or PD1-Ig (right panels), and the bound Ig fusion proteins were detected by anti-Ig-APC. Binding amounts were determined by percentage of APC positive cells.

## DD1α-Ig: the extracellular region of DD1α fused with the immunoglobulin G Fc segment
Human CD4+ T cells; human CD4+ and CD8+ T cells, ELISA of culture supernatant
  T cell activation-induced production of IFN-γ and TNF-α: clearly blocked
Human CD4+ T cells; plate-bound anti-CD3 3 μg/ml, CFSE, Ig control 92.2%
  proliferation of human CD4+ T cells: 47.1%
Human CD4+ T cells; plate-bound anti-CD3 3 μg/ml, CFSE, relative to Ig control (92.2% proliferation)
  inhibition of anti-CD3-stimulated human CD4+ T cell proliferation: ~45%
Human CD4+ T cells; various concentrations with 3 μg/ml anti-CD3
  CD4+ T cell proliferation stimulated by anti-CD3: strongly inhibited
Human CD8+ T cells
  CD8+ T cell proliferation stimulated by anti-CD3: strongly inhibited
PD-L1
  binding to PD-L1 transfectants: not to PD-L1 or TIM-3 transfectants
[1]
  binding to Jurkat cells expressing DD1α receptor: bind
